These results are taken from patent US11920158B2, “Cardiomyocyte maturation” (The Council of the Queensland Institute of Medical Research, priority 2016, dated 2024).

Where two headings read alike, the source gives them in different places.

Data set [1] deals with hPSC-CMs in human cardiac organoids (hCOs). In words: Whole-mount immunostaining and image analysis of hCO (Ki-67, pH3, MLC2v, activated β-catenin, 8-OxoG, pATM, α-actinin, DNA). Type of data set: cell-based. As for the experimental part: hCOs were fixed for 60 min with 1% paraformaldehyde (Sigma) at room temperature and washed 3× with PBS, after which they were incubated with primary antibodies (Table 1) in Blocking Buffer, 5% FBS and 0.2% Triton-X-100 (Sigma) in PBS overnight at 4° C. Cells were then washed in Blocking Buffer 2× for 2 h and subsequently incubated with secondary antibodies (Table 1) and Hoescht (1:1000) overnight at 4° C. They were washed in Blocking Buffer 2× for 2 h and imaged in situ or mounted on microscope slides using Fluoromount-G (Southern Biotech). For screening hCO were imaged using a Leica DMi8 high content imaging microscope for in situ imaging. Custom batch processing files were written in Matlab R2013a (Mathworks) to remove the background, calculate the image intensity, and export the batch data to an Excel (Microsoft) spreadsheet. For more detailed images an Olympus IX81 confocal microscope or a Nikon Diskovery Spinning Disk confocal microscope for mounted imaging. For cell cycle analysis experiments 3 random fields of view were imaged and manually quantified for proliferation. These were added together to calculate the percentage of hPSC-CM proliferation in each hCO.

The test system of data set [2] is human cardiac organoids (hCOs). Nature of the data set: Force analysis of hCO in Heart-Dyno (pole deflection, contraction parameters). Format: cell-based. As to conditions: for EC50: read-out: calcium EC50 for force of contraction. As for the experimental part: CTRL medium: α-MEM GlutaMAX (ThermoFisher Scientific), 10% fetal bovine serum (FBS) (ThermoFisher Scientific), 200 μM L-ascorbic acid 2 phosphate sesquimagnesium salt hydrate (Sigma) and 1% Penicillin/Streptomycin (ThermoFisher Scientific). For each hCO, 5×10^4 cardiac cells in CTRL medium were mixed with collagen I to make a 3.5 μl final solution containing 2.6 mg/ml collagen I and 9% Matrigel. The bovine acid-solubilized collagen I (Devro) was first salt balanced and pH neutralized using 10×DMEM and 0.1 M NaOH, respectively, prior to mixing with Matrigel and cells. The mixture was prepared on ice and pipetted into the Heart-Dyno. The Heart-Dyno was then centrifuged at 100×g for 10 s to ensure the hCO form halfway up the posts. The mixture was then gelled at 37° C. for 30 min prior to the addition of CTRL medium to cover the tissues (150 μl/hCO). The Heart-Dyno design facilitates the self-formation of tissues around in-built PDMS exercise poles (designed to deform ˜0.07 μm/μN). The medium was changed every 2-3 days (150 μl/hCO). hCOs were cultured in CTRL medium for formation and then changed to serum-free media as indicated for experiments. For all screening experiments, after hCO formation, hCOs were cultured in serum-free conditions comprising DMEM without glucose, glutamine and phenol red (ThermoFisher Scientific) supplemented with 4% B27 (with or without insulin) (ThermoFisher Scientific), 1% GlutaMAX (ThermoFisher Scientific), 200 μM L-ascorbic acid 2 phosphate sesquimagnesium salt hydrate and 1% Penicillin/Streptomycin (ThermoFisher Scientific). […] A timeline of the finalized hCO fabrication, culture and maturation protocol can be found in FIG. 1m.
The pole deflection was used to approximate the force of contraction. A Leica DMi8 inverted high content Imager was used to capture a 10 s time-lapse of each hCO contracting in real time at 37° C. Custom batch processing files were written in Matlab R2013a (Mathworks) to convert the stacked TIFF files to AVI, track the pole movement (using vision.PointTracker), determine the contractile parameters, produce a force-time figure, and export the batch data to an Excel (Microsoft) spreadsheet.
Custom batch processing files were written in Matlab R2013a (Mathworks) to convert the stacked TIFF files to AVI, track the pole movement (using vision.PointTracker), determine the contractile parameters, produce a force-time figure, and export the batch data to an Excel (Microsoft) spreadsheet. The follow formulae were used to determine the contractile force at each time-point. Maximum deflection at the end of a rectangular cantilever fixed at one end with force applied at a specified distance:
Based on the parameters of our system: E=1500 kPa, b=0.5 mm, h=0.2 mm, L=0.7 mm, and x=0.35 mm (hCO half-way up the poles), k=14 μN/μm.

Data set [3] deals with adult cardiac muscle. As to conditions: ref (23), read-out: calcium EC50; cited from earlier work.
The subject of data set [4] is human cardiac organoids (hCOs). In words: ELISAs for lactate dehydrogenase and cardiac troponin I (cell viability of hCO). Type of data set: cell-based. The note with it: addition of palmitate, serum-free culture of hCOs.
In data set [5] the test system is human cardiac organoids (hCOs). Nature of the data set: hCO tissue viability (viable, intact and functional tissues). As to conditions: prolonged presence within the maturation media. Format: cell-based.

`Cc1c[nH]c(-c2cnc(NCCNc3ccc(C#N)cn3)nc2-c2ccc(Cl)cc2Cl)n1` [CHIR99021, reference compound]: the “proliferating (Ki-67) hPSC-CMs (α-actinin)” value in data set [1] (hCOs cultured in MM, 24 h treatment) was “blunted proliferative response”. Besides, the “proliferation (α-actinin and Ki-67 staining)” value in data set [1] (hCOs, 5 μm CHIR vs 0.05% DMSO) is “pro-proliferative effects”.
For `[Ca+2]` [calcium], the EC50 in data set [2] (hCOs cultured in CTRL medium) is 300 µM; in data set [2] (hCOs cultured in MM) it was 1000 µM; in data set [3], 2600 to 6000 µM.
Take `COc1cc(N)c(Cl)cc1C(=O)NC1CCN(CCCOc2ccc(F)cc2)CC1OC` (centres unmarked) [cisapride, reference compound]: in data set [2] (hCO, pro-arrhythmogenic compound with hERG toxicity), the relaxation time entry is “prolong relaxation time”.
In the case of `CC(C)NCC(O)c1ccc(O)c(O)c1` (centres unmarked) [isoprenaline, reference compound], in data set [2] (hCOs cultured in MM, culture medium 1.8 mM Ca2+ (no increase in CTRL medium)), the force of contraction entry was “increase in the force of contraction”. The rate of contraction entry in data set [2] (hCOs in both CTRL medium and MM) is given as “increased the rate of contraction”. For the same molecule, the 50% contraction time result in data set [2] (paced 1 Hz at the calcium EC50, both CTRL medium and MM hCO) was “decreased 50% contraction time”.
Regarding `CCCCCCCCCCCCCCCC(=O)O` [palmitate, palmitic acid], the “hCO force of contraction” value is “significantly higher forces” in data set [2] (100 μM palmitate, absence of insulin, 0.5, 1 and 5.5 mM glucose); “trend to increase” in data set [2] (addition of 10 μM and 100 μM palmitate, serum-free conditions with insulin, vs 0 μM palmitate). Also, the lactate dehydrogenase levels entry in data set [4] was “unaffected”. Moreover, the MLC2v expression result in data set [1] (addition of palmitate, serum-free with insulin, relative to 5.5 mM glucose without palmitate) is reported as “increased”; in data set [1] (palmitate, absence of insulin) it was “trend to increased MLC2v expression”.
In the case of “TGF-β1: TGFβ-1 growth factor (Peprotech)”, the “hCO function (force of contraction)” value in data set [2] (0, 1, 3 and 10 ng/ml, day 2-5, 2-7 and 2-9, H9-derived hCOs) is “detrimental to hCO function”. Besides, the contractile function result in data set [2] (prolonged presence within the maturation media) was “compromised the contractile function”. Further, in data set [5], the cell death entry is given as “significant cell death”.
As for “insulin: insulin, commonly used in serum-free medium supplements (B27 with insulin)”, the “activated β-catenin” value in data set [1] (48 h, regardless of glucose or palmitate) is “highly dependent on insulin”. Moreover, the “re-activation of hPSC-CM proliferation (Ki-67)” value in data set [1] (addition of insulin after 11 days in MM) is “not sufficient to re-activate”. Further, the “hPSC-CM proliferation (Ki-67 expression)” value in data set [1] (serum-free conditions, 1 mM glucose and 10 μM palmitate) is recorded as “inducing hPSC-CM proliferation”.

Usually EC50 stands for the midpoint of the concentration-response curve.
